Here are results for four molecules from BindingDB's records for doi:10.1016/j.bmcl.2003.08.064 (Abbott Laboratories, 2003).

The target of assay [1] is T1, Tyrosine-protein phosphatase non-receptor type 2 (Homo sapiens, UniProt P17706).
T1 sequence (P17706 whole entry): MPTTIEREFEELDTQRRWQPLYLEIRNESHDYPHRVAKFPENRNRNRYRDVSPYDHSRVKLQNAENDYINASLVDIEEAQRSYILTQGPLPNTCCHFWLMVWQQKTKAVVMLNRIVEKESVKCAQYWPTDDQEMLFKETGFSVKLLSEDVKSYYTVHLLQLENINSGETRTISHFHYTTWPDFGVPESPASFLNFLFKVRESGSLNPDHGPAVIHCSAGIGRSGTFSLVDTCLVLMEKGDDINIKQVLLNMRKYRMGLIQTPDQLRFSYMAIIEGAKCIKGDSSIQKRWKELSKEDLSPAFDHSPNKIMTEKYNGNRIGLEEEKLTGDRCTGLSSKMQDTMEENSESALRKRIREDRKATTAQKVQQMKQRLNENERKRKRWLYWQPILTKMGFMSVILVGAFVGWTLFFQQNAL
Kind of assay: PTP1B and TCPTP Inhibition Assay. The note with it: pH 7.5; 22 °C.
Protocol: (§1) For each concentration of test compound or DMSO control, the initial rates were used to fit the rectangular hyperbola of Michaelis-Menten by nonlinear regression analysis. The ratio of the apparent Km/Vmax vs inhibitor concentration was plotted, and the Ki was calculated by linear regression to be the negative X-intercept.

The target of assay [2] is T2, Tyrosine-protein phosphatase non-receptor type 1 [1-298] (Homo sapiens, UniProt P18031).
T2 construct: 1-298
T2 sequence (P18031 whole entry): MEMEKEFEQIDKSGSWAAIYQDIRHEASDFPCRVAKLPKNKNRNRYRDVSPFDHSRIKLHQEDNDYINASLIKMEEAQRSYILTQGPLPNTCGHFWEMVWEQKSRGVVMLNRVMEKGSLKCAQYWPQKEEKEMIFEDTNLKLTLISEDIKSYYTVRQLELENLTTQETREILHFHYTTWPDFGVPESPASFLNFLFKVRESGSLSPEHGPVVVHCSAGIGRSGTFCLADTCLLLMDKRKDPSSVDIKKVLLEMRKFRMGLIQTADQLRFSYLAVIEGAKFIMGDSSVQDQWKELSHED
Kind of assay: PTP1B and TCPTP Inhibition Assay. The following applies: pH 7.5; 22 °C.
Protocol: as §1

Consider `CCc1cc(CC(NC(C)=O)C(=O)NCCCCOc2cccc(O)c2C(=O)OC)ccc1N(C(=O)C(=O)O)c1ccccc1C(=O)O` (centres undefined), for which, in assay [1], affinity was put at a Ki of 65 µM.

Molecule `COC(=O)c1c(O)cccc1OCCCCNC(=O)[C@H](Cc1ccc(OCC(=O)O)cc1)NC(=O)OC(C)(C)C` showed an inhibition constant (Ki) in assay [1] above 200 µM.

Molecule `COC(=O)c1c(O)cccc1OCCCCNC(=O)[C@H](Cc1ccc(OCC(=O)O)c(O)c1)NC(C)=O` (racemic) [2-{4-[2-acetamido-2-({4-[3-hydroxy-2-(methoxycarbonyl)phenoxy]butyl}carbamoyl)ethyl]-2-hydroxyphenoxy}acetic acid] displayed a Ki in assay [1] of 182 µM.

As to `COC(=O)c1c(O)cccc1OCCCCNC(=O)[C@H](Cc1ccc(C=CC(=O)O)cc1)NC(=O)OC(C)(C)C` [(2Z)-3-{4-[(2S)-2-{[(tert-butoxy)carbonyl]amino}-2-({4-[3-hydroxy-2-(methoxycarbonyl)phenoxy]butyl}carbamoyl)ethyl]phenyl}prop-2-enoic acid], the Ki in assay [2] was above 200 µM.
